Measurements: patent publication US20260098013A1, “Stereoisomer Conjugates of Dextrorphan” (priority 2024, published 2026)

Details: rat, in vivo; for AUC0-6 h / Cmax / Tmax: 6 mg/kg

Structure (SMILES)	Exposure Ratio AUC (Sprague-Dawley, po) [%]	Exposure Ratio Cmax (Sprague-Dawley, po) [%]	AUC0-6 h (Sprague-Dawley, po) [ng·h/mL]	Cmax (Sprague-Dawley, po) [ng/mL]	Tmax (Sprague-Dawley, po) [h]	AUC compared to dextrorphan tartrate (po)	oral dextrorphan bioavailability / exposure compared to dextrorphan tartrate (po)	Cmax compared to dextrorphan tartrate (po)	dextrorphan AUC0-6h, times higher compared to dextrorphan tartrate (po)	dextrorphan Cmax, times higher compared to dextrorphan tartrate (po)	steadiness of plasma concentration	time to reach maximum plasma concentration after administration (Sprague-Dawley, po)	fold increase in AUC0-6h compared to dextrorphan tartrate (Sprague-Dawley, po)	fold increase in Cmax compared to dextrorphan tartrate (Sprague-Dawley, po) [fold]	oral bioavailability compared to the other diastereomer of the same prodrug (po)
CC(C)[C@H](N)C(=O)N[C@H](C(=O)Oc1ccc2c(c1)[C@]13CCCC[C@@H]1C(C2)N(C)CC3)C(C)C [3-(L-Val-L-Val)-dextrorphan]	85	128	78.5	98.9	0.5	slightly lower	good oral bioavailability								
CC[C@@H](C)[C@@H](NC(C)=O)C(=O)Oc1ccc2c(c1)[C@]13CCCC[C@@H]1C(C2)N(C)CC3 [3-(N-Ac-D-Ile)-dextrorphan]	880	672	294.6	81.9	2.9	much smaller		much smaller	> 8 times	over 6 times					
C[C@H](N)C(=O)N[C@@H](C)C(=O)Oc1ccc2c(c1)[C@]13CCCC[C@@H]1C(C2)N(C)CC3 [3-(L-Ala-L-Ala)-dextrorphan]	147	217	88.3	87.3	0.8	larger		larger	about 1.5 times	over 2 times					
CC(=O)N[C@@H](C)C(=O)Oc1ccc2c(c1)[C@]13CCCC[C@@H]1C(C2)N(C)CC3 [3-(N-Ac-L-Ala)-dextrorphan]	40	35	29.6	18.2	0.7	much smaller	decreasing bioavailability	much smaller			steadier				
CC(=O)N[C@H](CCC(=O)O)C(=O)Oc1ccc2c(c1)[C@]13CCCC[C@@H]1C(C2)N(C)CC3 [3-(N-Ac-D-Glu)-dextrorphan]	30	10	12.7	3.5	2.4	much smaller		much smaller			steadier	around 2 hours			
CC(=O)N[C@H](Cc1ccccc1)C(=O)Oc1ccc2c(c1)[C@]13CCCC[C@@H]1[C@H](C2)N(C)CC3 [3-(N-Ac-D-Phe)-dextrorphan]	30	11	19.1	4.7	5.0	much smaller		much smaller			much steadier				
CC(=O)N[C@@H](CCC(=O)O)C(=O)Oc1ccc2c(c1)[C@]13CCCC[C@@H]1C(C2)N(C)CC3 [3-(N-Ac-L-Glu)-dextrorphan]	43	14	18.4	4.8	1.8	much smaller		much smaller			steadier	around 2 hours			
CC(C)[C@@H](NC(=O)[C@@H](C)N)C(=O)Oc1ccc2c(c1)[C@]13CCCC[C@@H]1C(C2)N(C)CC3 [3-(D-Ala-D-Val)-dextrorphan]						larger	superior	larger							
CC(=O)N[C@@H](Cc1ccccc1)C(=O)Oc1ccc2c(c1)[C@]13CCCC[C@@H]1[C@H](C2)N(C)CC3 [3-(N-Ac-L-Phe)-dextrorphan]	44	18	27.7	8.0	2.8	much smaller		much smaller			much steadier				
CC(=O)N[C@@H](C(=O)Oc1ccc2c(c1)[C@]13CCCC[C@@H]1C(C2)N(C)CC3)C(C)C [3-(N-Ac-D-Val)-dextrorphan]	556	180	467.4	127.7	3.0	higher		higher	more than 5 times	about 1.8 times					
CC(=O)N[C@H](C)C(=O)Oc1ccc2c(c1)[C@]13CCCC[C@@H]1C(C2)N(C)CC3 [3-(N-Ac-D-Ala)-dextrorphan]		32	30.8	16.5	1.6	much smaller		much smaller			steadier				
CN1CC[C@]23CCCC[C@H]2[C@H]1Cc1ccc(O)cc13 [Dextrorphan, (+)-17-methylmorphinan-3-ol]												approximately 30 minutes			
CC[C@H](C)[C@H](NC(C)=O)C(=O)Oc1ccc2c(c1)[C@]13CCCC[C@@H]1C(C2)N(C)CC3 [3-(N-Ac-L-Ile)-dextrorphan]			27.4	13.9	2.2										
C[C@@H](N)C(=O)N[C@H](C)C(=O)Oc1ccc2c(c1)[C@]13CCCC[C@@H]1C(C2)N(C)CC3 [3-(D-Ala-D-Ala)-dextrorphan]	59	43	24.7	9.6	2.1	lower	lower	smaller							
CC(=O)N[C@H](C(=O)Oc1ccc2c(c1)[C@]13CCCC[C@@H]1C(C2)N(C)CC3)C(C)C [3-(N-Ac-L-Val)-dextrorphan]	37		31.2	12.6	2.8			lower							
CC(C)[C@H](NC(=O)[C@H](N)C(C)C)C(=O)Oc1ccc2c(c1)[C@]13CCCC[C@@H]1C(C2)N(C)CC3 [3-(D-Val-D-Val)-dextrorphan]						larger		larger					about 4.5 fold	~2.7	significantly increased
